What all share (format): ADME, organism-based
Data set [1] can be described thus: Bioavailability in CD1 mouse at 10 mg/kg, po. Conditions: in vivo.
Data set [2] in a line: Clearance in CD1 mouse at 3 mg/kg, iv. Also on record: dose 3 mg/kg, route intravenous. To be noted: in vivo.
Data set [3] in a line: Half life in CD1 mouse at 3 mg/kg, iv. To be noted: in vivo. Also on record: dose 3 mg/kg, route intravenous.
Data set [4] in a line: AUC in CD1 mouse at 10 mg/kg, po. To be noted: plasma. Further details: dose 10 mg/kg, route oral.

As a reminder, the bioavailability is the share of a dose that reaches the circulation, judged against a reference dose that is usually intravenous. Lower therefore signals poor availability. The term clearance denotes the rate of elimination divided by the concentration. Higher therefore signals a high capacity for elimination. The term half-life denotes how long it takes for the measured level to halve. Read a low half-life as rapid decline. In general, AUC refers to the area under the concentration-time curve, a measure of exposure.

Structures are written as SMILES.

Take `CN1CCN(Cc2ccc3c(c2)Cc2c-3n[nH]c2-c2csc(C#CCNC(=O)Nc3ccccc3)c2)CC1`: the bioavailability in data set [1] is 0%.
Molecule `COCCOCC#Cc1cc(-c2n[nH]c3c2Cc2cc(Cn4cncn4)ccc2-3)cs1` had a clearance in data set [2] of 3.4 L/h/kg. This molecule gave a bioavailability in data set [1] of 22%. In data set [3], this molecule gave a half-life of 0.3 h.
For the molecule `CN1CCN(Cc2ccc3c(c2)Cc2c-3n[nH]c2-c2csc(C#CCOc3ccccc3)c2)CC1`, the bioavailability in data set [1] amounted to 75%. Moreover, the half-life in data set [3] was 5.5 h.
The molecule `C(#Cc1cc(-c2n[nH]c3c2Cc2cc(Cn4cncn4)ccc2-3)cs1)COc1ccccc1` showed a clearance in data set [2] of 2.5 L/h/kg. In data set [3], this molecule gave a half-life of 3 h.
Regarding `CN1CCN(Cc2ccc3c(c2)Cc2c(-c4csc(C#CCNC(=O)c5ccccc5)c4)n[nH]c2-3)CC1`, the bioavailability in data set [1] came to 17%. The AUC in data set [4] is 3.5 µg·h/mL.

The values are drawn from ChEMBL document CHEMBL1147155, “1,4-Dihydroindeno[1,2-c]pyrazoles with acetylenic side chains as novel and potent multitargeted receptor tyrosine kinase inhibitors with low affinity for the hERG ion channel” (J Med Chem, 2007).
